For five compounds, IC50 results are on record in patent publication US20240109930A1, “TRIAZOLYL-METHYL SUBSTITUTED ALPHA-D-GALACTOPYRANOSIDE DERIVATIVES” (Idorsia Pharmaceuticals Ltd, priority 2021, published 2024).

In assay [1] the target is human Gal-3 (hGal-3) (Homo sapiens (Human), UniProt P17931). In words: Competitive binding assay: biotinylated hGal-3 binding to microplate-adsorbed asialofetuin (ASF). The settings on record: IC50 values from several measurements given as geomean. An outline of the steps: (§1)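 Biotinylated hGal-3 or hGal-1 (preferably cysteine-free Cys→Ser mutant), 300–1000 ng/mL, competes with compound for ASF-coated wells for 3 h at 4 °C. Bound lectin detected with streptavidin-peroxidase (80 ng/mL, 1 h, 4 °C) and ABTS by absorbance; IC50 reported as geomean of several runs.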
Chain of human Gal-3 (hGal-3) (P17931 whole entry): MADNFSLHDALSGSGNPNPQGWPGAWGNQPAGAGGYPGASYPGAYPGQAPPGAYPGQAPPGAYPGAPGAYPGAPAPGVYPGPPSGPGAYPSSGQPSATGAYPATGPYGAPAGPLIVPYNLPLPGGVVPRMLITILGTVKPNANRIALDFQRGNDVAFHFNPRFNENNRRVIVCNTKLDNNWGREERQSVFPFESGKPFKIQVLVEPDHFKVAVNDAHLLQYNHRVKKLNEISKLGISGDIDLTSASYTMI

Assay [2] concerns the target human Gal-1 (hGal-1) (Homo sapiens, UniProt P09382, C131S/C17S/C43S/C61S/C89S). In words: Competitive binding assay: biotinylated hGal-1 binding to microplate-adsorbed asialofetuin (ASF). The settings on record: IC50 values from several measurements given as geomean. An outline of the steps: as §1

A word on the IC50: it is the concentration at which inhibition is half-maximal. A low value points to higher potency. In the case of `CO[C@@H]1[C@@H](n2cc(-c3ccc(Cl)c(F)c3F)nn2)[C@@H](O)[C@@H](CO)O[C@@H]1Cc1cn([C@@H]2CCCC[C@H]2F)nn1` [Example 2.1.81.C, (2R,3R,4S,5R,6R)-4-(4-(4-chloro-2,3-difluorophenyl)-1H-1,2,3-triazol-1-yl)-6-((1-((1R,2R)-2-fluorocyclohexyl)-1H-1,2,3-triazol-4-yl)methyl)-2-(hydroxymethyl)-5-methoxytetrahydro-2H-pyran-3-ol], the IC50 in assay [1] came out at 0.06 µM; in assay [2], 2.92 µM.

On to `CO[C@@H]1[C@@H](n2cc(-c3ccc(Cl)c(F)c3F)nn2)[C@@H](O)[C@@H](CO)O[C@@H]1Cc1cn([C@H]2CCCC[C@@H]2F)nn1` [Example 2.1.81.D, (2R,3R,4S,5R,6R)-4-(4-(4-chloro-2,3-difluorophenyl)-1H-1,2,3-triazol-1-yl)-6-((1-((1S,2S)-2-fluorocyclohexyl)-1H-1,2,3-triazol-4-yl)methyl)-2-(hydroxymethyl)-5-methoxytetrahydro-2H-pyran-3-ol], for which the half-inhibitory concentration (IC50) in assay [1] stood at 0.06 µM; in assay [2] it was 2.18 µM.

Take `CO[C@@H]1[C@@H](n2cc(-c3ccc(Br)c(F)c3F)nn2)[C@@H](O)[C@@H](CO)O[C@@H]1Cc1cn(C2CCC2(F)F)nn1` (stereo partly drawn) [Example 4.1.63.AB, (2R,3R,4S,5R,6R)-4-(4-(4-bromo-2,3-difluorophenyl)-1H-1,2,3-triazol-1-yl)-6-((1-(2,2-difluorocyclobutyl)-1H-1,2,3-triazol-4-yl)methyl)-2-(hydroxymethyl)-5-methoxytetrahydro-2H-pyran-3-ol]: the 50% inhibitory concentration (IC50) was 0.07 µM in assay [1] and 3.19 µM in assay [2].

For the compound `CO[C@@H]1[C@@H](n2cc(-c3ccc(Br)c(F)c3F)nn2)[C@@H](O)[C@@H](CO)O[C@@H]1Cc1cn([C@@H]2CCCC2(F)F)nn1` [Example 4.1.64.A, (2R,3R,4S,5R,6R)-4-(4-(4-bromo-2,3-difluorophenyl)-1H-1,2,3-triazol-1-yl)-6-((1-((R)-2,2-difluorocyclopentyl)-1H-1,2,3-triazol-4-yl)methyl)-2-(hydroxymethyl)-5-methoxytetrahydro-2H-pyran-3-ol], the results for the IC50 in assay [1] and in assay [2] were 0.03 µM and 1.74 µM, respectively.

With `CO[C@@H]1[C@@H](n2cc(-c3ccc(Br)c(F)c3F)nn2)[C@@H](O)[C@@H](CO)O[C@@H]1Cc1cn([C@H]2CCCC2(F)F)nn1` [Example 4.1.64.B, (2R,3R,4S,5R,6R)-4-(4-(4-bromo-2,3-difluorophenyl)-1H-1,2,3-triazol-1-yl)-6-((1-((S)-2,2-difluorocyclopentyl)-1H-1,2,3-triazol-4-yl)methyl)-2-(hydroxymethyl)-5-methoxytetrahydro-2H-pyran-3-ol], the figures for the half-inhibitory concentration (IC50) in assay [1] and in assay [2] were 0.05 µM and 1.81 µM, respectively.
